The values below come from US20240165196A1, “Beta-Lactamase Inhibitors” (VIB VZW, priority 2021, published 2024).

What all share (format): cell-based
In assay [1] the test system is E. coli clinical isolate, β-lactamase SHV-12; TEM-ESBL. As to the kind of experiment: MIC of ampicillin without/with 30 μg/mL TEM3.2, clinical isolates. The settings on record: isolate 2017 Germany, RTI, Bronchi; ampicillin alone. The procedure: (§1) Moreover, the core sequence of peptide TEM3.0 also occurs in the structurally related SHV β-lactamase (FIG. 2E). Although the C-terminal extension residues H and N have been replaced with physicochemically similar R and Q, respectively (FIG. 2H). […] To quantify the synergy between these four peptides and penicillin G, we performed a so-called checkerboard assay, which allows to compare the activity of two test compounds co-incubated (here peptide and a beta-lactam antibiotic), to their individual activities in isolation. The result from the assay is quantified as the Fractional Inhibitory Concentration Index (FICI), and it is generally accepted that values below 0.5 indicate synergistic effects between the compounds. As a control, we generated a peptide using the same design, but based on a previously identified APR from the β-galactosidase enzyme (BGAL)^16 from E. coli (APR=SVIIWSL, peptide sequence=[…]) that has a MIC value>100 μg/mL on E. coli strain UZ_TEM104. We evaluated the synergy of the peptides with penicillin G in clinical E. coli isolates carrying the TEM (FIG. 2I) or SHV enzymes (FIG. 2J). […] As a further control, we also performed a checkerboard assay with an E. coli strain that was resistant to the aminoglycoside kanamycin and observed no synergy between this unrelated antibiotic and our peptides (FIG. 2L), in line with the notion that we are inhibiting a beta-lactamase but not the aminoglycoside degrading enzyme. […] The list of strains included some that harbored only TEM or SHV, but others contained additional Ambler Class A (CTX-M or OXA) or Class B (VIM and NDM) beta-lactamases. […] In contrast, the presence of the NDM-type […], that does have a high affinity for Ampicillin and that is completely distinct in sequence and structure from TEM and SHV, seemed to completely prevent the effect of the peptide on the beta-lactam sensitivity of the strains in which it occurred (see also further). As it appeared that TEM3.2 had activity in most isolates tested, we decided to focus further analysis on this peptide. Furthermore, we tested the performance of the TEM3.2 peptide in a checkerboard assay on strains carrying ESBL mutants of TEM, i.e. extended-spectrum mutations that cluster around the active site of the enzyme, and not in the aggregation prone region targeted by the peptide, and as expected from our mode of action, we observed synergy with ampicillin on these strains (FIG. 2M).
(§2) Determination of MIC values using the broth microdilution in the 96-well plate (BD Biosciences, Belgium) according to the EUCAST guideline, which was performed in 96-well polystyrene flat bottom microtiter plates (BD Biosciences). Briefly, a single colony was inoculated into 5 mL Difco™ Mueller Hinton Broth (BD Biosciences Ref 275730) and grown to the end-exponential growth phase in a shaking incubator at 37° C. Cultures were subsequently diluted to an MacFarland (0.5 optical density) then the culture was diluted to reach 10^6 CFU/mL in fresh MHB medium. 50 μl of different concentration of peptides ranging from 128 to 2 μg/mL were serially diluted to the sterile 96-well plate in MHB. 50 μL of the diluted bacteria in MHB were pipetted into 96-well plates to reach the final volume of 100 μL. The bacteria grown with the maximum concentration of carrier and medium were considered as positive and negative controls, respectively. The plates were statically incubated overnight at 37° C. to allow bacterial growth. OD was measured at 590 nm a multipurpose ultraviolet-visible plate reader, and the absorbance of the growth bacteria was measured using absorbance reader. Bacterial growth was also visually inspected and agreed well with the OD reading.

Assay [2] deals with E. coli clinical isolate, β-lactamase SHV-2; CTX-M-55; VIM-1. The description is as above. As to conditions: isolate 2017 Turkey, UTI, Urine; ampicillin alone. The procedure: as §1, §2
The subject of assay [3] is E. coli clinical isolate, β-lactamase TEM-1. Described as above. As to conditions: isolates year NA, country NA, ampicillin alone. Here is the method:
as §1, §2

The test system of assay [4] is E. coli clinical isolate, β-lactamase TEM-ESBL; CTX-M-15; NDM-19. Described as above. As to conditions: isolate 2017 Qatar, IAI, Abscess; ampicillin alone. Here is the method: as §1, §2
The test system of assay [5] is E. coli clinical isolate, β-lactamase TEM-ESBL; CTX-M-15; NDM-5. The description is as above. The settings on record: isolate 2017 Qatar, UTI, Urine; ampicillin alone. The procedure:
as §1, §2

The test system of assay [6] is E. coli clinical isolate, β-lactamase TEM-ESBL; CTX-M-24; OXA-48. Described as above. The settings on record: isolate 2017 Turkey, IAI, Abscess; ampicillin alone. Here is the method:
as §1, §2

Assay [7] has as its system E. coli clinical isolate, β-lactamase TEM-ESBL; CTX-M-27. The assay is described as above. The settings on record: isolate 2017 Romania, UTI, Urine; ampicillin alone. Here is the method: as §1, §2
Assay [8] deals with E. coli clinical isolate, β-lactamase TEM-ESBL; CTX-M-TYPE. The description is as above. The settings on record: isolate 2017 France, IAI, Peritoneal Fluid; ampicillin alone. Here is the method: as §1, §2
Assay [9] deals with E. coli clinical isolate, β-lactamase TEM-ESBL. The description is as above. As to conditions: ampicillin alone. Here is the method: as §1, §2
The next assay has as its system E. coli TEM-1 ?
The procedure:
(§3) Beta-lactamase clinical samples were collected from University Hospitals Leuven and tested for ESBL production using the disk diffusion method^61. The beta-lactamase reference isolates were purchased from IHMA International Health management associates. Bacterial strains were cultivated in Mueller Hinton Broth (MHB, Difco) at 37° C. Whenever required growth media were supplemented with appropriate antibiotic to the medium or plates (kanamycin 30 μg/mL, L-arabinose 0.5 mg/mL, and IPTG 1 mM/mL). Escherichia coli BL21 (Thermo Fisher Scientific, Belgium) was used for cloning and plasmid amplification. For selection of antibiotic resistance colonies, E. coli carrying plasmids was grown in LB agar plates supplemented with the relevant antibiotic. Bacterial CFU counting was done on blood agar plates (BD Biosciences, Belgium) or MHA agar plates. Species identification and antibiograms for all clinical isolates were performed using MALDI-Tof and VITEK® 2 automated system (BioMérieux, France).

The next assay deals with E. coli TEM-104. The procedure:
as §3

A further assay deals with E. coli TEM-148. The procedure:
as §3

In the next assay the test system is E. coli NDM ? a. As to the kind of experiment: antimicrobial susceptibility testing, VITEK 2 AST Cards. The procedure:
as §3

For a further assay, the system named is E. coli NDM ? b. The assay is described as above. Here is the method: as §3
Another assay deals with E. coli SH ? (APHA). The assay is described as above. Here is the method:
as §3

The next assay relates to E. coli TEM-206. The assay is described as above. Here is the method: as §3

Regarding `CC1(C)S[C@@H]2[C@H](NC(=O)[C@H](N)c3ccccc3)C(=O)N2[C@H]1C(=O)O` [ampicillin, Ampicillin], the MIC ampicillin in assay [1], in assay [2], in assay [3], in assay [4], in assay [5] and in [6] was above 64 µg/mL in each case. Besides, the MIC ampicillin in assay [7] was above 64 µg/mL; in [8], above 64 µg/mL; in [9] (isolate 2016 Germany, UTI, Urine), above 64 µg/mL; in assay [9] (isolate 2016 Lithuania, UTI, Urine), above 64 µg/mL; in assay [9] (isolate 2017 Israel, UTI, Urine), above 64 µg/mL; in assay [9] (isolate 2017 Portugal, RTI, Bronchi), above 64 µg/mL. Moreover, the MIC ampicillin in [9] (isolates 2016 South Africa, IAI, Peritoneal Fluid) is above 64 µg/mL. The Interpretation entry in the assay with E. coli TEM-1 ?, in the assay on E. coli TEM-104, with E. coli TEM-148, with E. coli NDM ? a, in the assay on E. coli NDM ? b and with E. coli SH ? (APHA) was “R” throughout. In addition, the Interpretation entry with E. coli TEM-206 is listed as “R”. Further, the minimal inhibitory concentration (MIC) against E. coli TEM-1 ?, in the assay on E. coli TEM-104, in the assay with E. coli TEM-148 and against E. coli TEM-206 was at least 32 µg/mL throughout.
